Test results: US10913773B2, “Bicyclic peptidyl inhibitor of tumor necrosis factor-alpha” (Ohio State Innovation Foundation, priority 2016, dated 2021)
pEC50: −log10 of the molar value.

Key:
[1] = tested on: TNFα-induced cell death in WEHI-13VAR fibroblasts (recombinant human TNFα); format: cell-based
Experimental: WEHI-13VAR fibroblasts were purchased from American Type Culture Collection (ATCC). For maintenance, cells were grown in full medium as RPMI-1640 supplemented with 10% FBS and 1% Abs. For toxicity assay, cells were seeded in a 96-well plate at a density of 5×10^3 cells/well in 100 μL of RPMI-1640/1% Abs supplemented with 10% or 5% FBS and allowed to grow overnight. Varying concentrations of recombinant human TNFα (0-250 ng/mL) or commercial mouse TNFα were (0-100 pg/mL) were incubated with 10 μM peptide and actinomycin D (1 μg/mL) in 100 μL of corresponding growth medium for 1 h at 37° C. Next, the medium in the 96-well plate was removed and replaced with the above fresh mixture and the cells were incubated overnight. Next day, 10 μL of the 3-(4, 5-dimethylthiazolyl-2)-2, 5-diphenyltetrazolium bromide (MTT, final concentration 0.5 mg/ml) was added to each well and incubated at 37° C. for 3 h, following by the addition of 100 μL of the MTT solubilization solution. The plate was kept in the incubator overnight to let the formazan crystals to completely dissolve, and the absorbance at 570 nm was measured on a TECAN plate reader. The LD50 was obtained as plotting the viability as a function of the TNFα concentration.
One of the biological functions of TNFα is to induce death signaling. Inhibitors against the TNFα-TNFR interaction are expected to protect cells against TNFα induced cell death. Therefore, anticachexin C1, C1-74, and C1-74-2 through C1-74-5 were compared for their ability to protect cultured WEHI-13 VAR fibroblasts, which are highly sensitive to TNFα in the presence of actinomycin-D, against TNFα-induced cell death (Khabar, K. S. A.; et al., “WEHI-13VAR: A Stable and Sensitive Variant of WEHI 164 Clone 13 Fibrosarcoma for Tumor Necrosis Factor Bioassay.” Immunol. Lett. 1995, 46:107-110). The cells were treated with a fixed concentration of peptides (10 μM) and varying concentrations of TNFα (0-1 μM), and the fraction of live cells was quantitated by the 3-(4,5-dimethylthiazol-2-yl)-2,5-diphenyltetrazolium bromide (MTT) assay. […] The MTT assay was also conducted at a fixed concentration of TNFα (0.4 ng/mL) but varying concentrations of peptides (0-10 μM).

[2] = tested on: TNFα-induced JNK phosphorylation; assay: Immunoblot of TNFα-induced JNK phosphorylation in WEHI-13VAR cells; format: cell-based; settings: TNFα with increasing peptide concentrations (0-20 μM); total JNK unchanged
Experimental: WEHI-13VAR cells were cultured in full growth media (RPMI, 5% FBS, 1% Pen/Strep) in 12-well plates to reach 80% confluence. TNFα (5 ng/mL final concentration) and varying concentrations of peptide inhibitor (0-6 μM) were pre-incubated in 0.5 mL of the growth medium for 30 min in the CO2 incubator. The mixture was then used to treat the cells at 37° C. and in the presence of 5% CO2. After 1.5 h, the solution was removed and the cells were washed with cold DPBS twice. The cells were lysed in 50 μL of lysis buffer (50 mM Tris, pH 7.4, 150 mM NaCl, 1% NP-40, and 5% glycerol) containing a protease inhibitor cocktail (Complete mini, Roche, product number 04693159001) and a phosphatase inhibitor cocktail (PhosSTOP, Roche, product number 04906845001). After incubation on ice for 30 min, the cell lysate was centrifuged at 15,000 rpm for 10 min in a microcentrifuge. An equal volume of 2×SDS-loading buffer was added to the supernatant. The total cellular proteins were separated by SDS-PAGE and transferred electrophoretically to a nitrocellulose membrane, which was subsequently immunoblotted using anti-JNK and anti-p-JNK Thr183/Tyr185 antibodies (both from Santa Cruz Biotechnology). The same samples were also separated on a different SDS-PAGE gel and stained by Coomassie brilliant blue to check the sample loading in all lanes. […]

[3] = Serum stability test; format: in vitro ADME, human; settings: human, diluted human serum (25%), supernatant after centrifugation; 8 h at 37° C.; read-out: Degradation in human serum
Experimental: Diluted human serum (25%) was centrifuged at 15,000 rpm for 10 min, and the supernatant was collected. A peptide stock solution was diluted into the supernatant to a final concentration of 5 μM and incubated at 37° C. At various time points (0-8 h), 200-μL aliquots were withdrawn and mixed with 50 μL of 15% trichloroacetic acid and 200 μL of acetonitrile. After incubation at 4° C. overnight, the mixture was centrifuged at 15,000 rpm for 10 min in a microcentrifuge, and the supernatant was analyzed by reversed-phase HPLC equipped with an analytical C18 column (Waters). The amount of remaining intact peptide (%, relative that of time zero control) was determined by integrating the area underneath the peptide peak (monitored at 214 nm).

[4] = biological target: T1, TNFα (Homo sapiens, UniProt P01375); assay: FA-based competition with FITC-labeled C1 for binding to TNFα; settings: 2 μM TNFα, 100 nM C1-NNNK(FITC), 0-15 μM competitor
T1 construct: ybbR tag (13 aa) (N); made in house; host or cells: Escherichia coli
T1 sequence (P01375 77-233 limits assumed): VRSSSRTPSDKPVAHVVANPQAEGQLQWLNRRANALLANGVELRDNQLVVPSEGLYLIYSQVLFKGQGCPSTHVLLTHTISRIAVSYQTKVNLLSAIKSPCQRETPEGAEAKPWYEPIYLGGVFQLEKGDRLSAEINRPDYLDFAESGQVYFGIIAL
Experimental: FIG. 6A is a graph showing the competition for binding to TNFα (2 μM) between C1-74-2 (0-15 μM) and C1-NNNK(FITC) (100 nM) as monitored by FA. FIG. 6B is a graph showing binding of infliximab-HRP conjugate to immobilized TNFα in the absence and presence of C1-74-2 (0, 2, or 6 μM).
[formula] where Y is the measured anisotropy at a given TNFα concentration x; L is the bicyclic peptide concentration; Qb/Qf is the correction fact for dye-protein interaction; Amax is the maximum anisotropy when all the peptides are bound to TNFα, while Amin is the minimum anisotropy. Competition experiments were performed by incubating 100 nM Asn-Asn-Asn-Lys(FITC)-labeled anticachexin C1 (Table 1), 2 μM of TNFα, and varying concentrations of unlabeled competitor peptide (0-20 μM) in the above buffer for 2 h. The FA values were plotted against the competitor peptide concentration to determine the IC50 values.

For CC(=O)[C@@H]1CCCN(C(=O)[C@@H](Cc2c[nH]cn2)NC(=O)C(N)C(C)C)C1 (some centres unmarked) [Compound C1-74-2], the pEC50 [1] was ~7.30, the “Concentration giving almost complete protection” value ([1]; 0.4 ng/mL TNFα) was ≥ 100 nM and the p-JNK level [2] was “decreased with the C1-74-2 concentration”. The metabolised at 8 h, 5 μM [3] was ~15% and the “Competition with FITC-labeled C1 for binding to TNFα” value [4] was “competed with FITC-labeled C1 for binding to TNFα”.
